Laboratory results published in patent publication US8178548B2, “Anti-infective agents and uses thereof” (priority 2007, dated 2012).
Read-outs that look alike come from different tables or passages of the source.

Assays:
[1] = molecular target: T1, HCV polymerase 1B (Δ21 NS5B, HCV Strain 1B BK) (Hepatitis C virus genotype 1b, UniProt P26663); assay: biochemical
T1 construct: 20 to 50 nM Δ21 NS5B
Method: (§1) Either two-fold serial dilutions (fractional inhibition assay) or a narrower range of dilutions spanning the IC50 of the inhibitor (tight binding assay) of the inhibitors were incubated with 20 mM Tris-Cl pH 7.4, 2 mM MnCl2, 1 mM dithiothreitol, 1 mM ethylene diamine tetraacetic acid (EDTA), 60 to 125 μM GTP and 20 to 50 nM Δ21 NS5B (HCV Strain 1B (BK, Genbank accession number M58335, or H77, Genbank accession number AF011751)) for 15 min at room temperature. The reaction was initiated by the addition of 20 μM CTP, 20 μM ATP, 1 μM ^3H-UTP (10 mCi/umol), 5 nM template RNA and 0.1 U/μl RNase inhibitor (RNasin, Promega), and allowed to proceed for 2 to 4 h at room temperature. Reaction volume was 50 μl. The reaction was terminated by the addition of 1 volume of 4 mM spermine in 10 mM Tris-Cl pH 8.0, 1 mM EDTA. After incubation for at least 15 min at room temperature, the precipitated RNA was captured by filtering through a GF/B filter (Millipore) in a 96 well format. The filter plate was washed three times with 200 μl each of 2 mM spermine, 10 mM Tris-Cl pH 8.0, 1 mM EDTA, and 2 times with ethanol. After air-drying, 30 μl of Microscint 20 scintillation cocktail (Packard) was added to each well, and the retained cpm were determined by scintillation counting. […] Retained cpm were plotted vs. inhibitor concentration and fit to equation 1 using non-linear regression (ref. 1) to obtain the IC50 values: Retained cpm=A[sqrt{(IC50+It−Et)^2+4*IC50*Et}−(IC50+It−Et)]
(§2) Ref. Morrison, J. F. and S. R. Stone. 1985. Approaches to the study and analysis of the inhibition of enzymes by slow- and tight-binding inhibitors. Comments Mol. Cell. Biophys. 2: 347-368.
(§3) The sequence of the template RNA used was: 5′-[…] […] […] […] […] […] […] […] […] […] […] […] […] […] […] […] […]-3′ (SEQ ID NO:1).

[2] = molecular target: T2, HCV polymerase 1A (Δ21 NS5B, H77) (Hepatitis C virus genotype 1a, UniProt P27958); assay: biochemical
T2 construct: 20 to 50 nM Δ21 NS5B
T2 sequence (P27958 2421-2990, stated change not applied): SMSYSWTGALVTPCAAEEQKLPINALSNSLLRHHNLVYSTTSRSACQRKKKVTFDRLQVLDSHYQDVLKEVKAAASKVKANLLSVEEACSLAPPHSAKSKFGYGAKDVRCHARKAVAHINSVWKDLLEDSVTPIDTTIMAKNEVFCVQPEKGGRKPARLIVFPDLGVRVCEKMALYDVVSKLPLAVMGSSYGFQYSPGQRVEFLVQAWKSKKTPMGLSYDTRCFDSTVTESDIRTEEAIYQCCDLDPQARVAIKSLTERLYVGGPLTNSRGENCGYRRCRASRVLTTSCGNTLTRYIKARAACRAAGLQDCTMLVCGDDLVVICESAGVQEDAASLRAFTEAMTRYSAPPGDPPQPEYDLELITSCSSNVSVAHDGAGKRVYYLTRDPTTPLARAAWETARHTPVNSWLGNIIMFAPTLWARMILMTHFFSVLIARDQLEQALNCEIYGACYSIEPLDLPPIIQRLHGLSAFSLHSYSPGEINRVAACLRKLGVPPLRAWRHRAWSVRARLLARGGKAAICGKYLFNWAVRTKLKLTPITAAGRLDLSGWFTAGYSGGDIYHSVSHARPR
Method: as §1, §2, §3

[3] = tested on: genotype 1a-H77 subgenomic replicon cell line; assay: HCV Polymerase Replicon Assay, genotype 1a-H77 (luciferase reporter); assay type: cell-based; settings: Hepatitis C virus, 72 h, read-out: EC50 1a
[4] = tested on: genotype 1b-Con1 subgenomic replicon cell line; assay: HCV Polymerase Replicon Assay, genotype 1b-Con1 (luciferase reporter); assay type: cell-based; settings: Hepatitis C virus, 72 h, read-out: EC50 1b
[5] = replicon 1a-H77, luciferase, three days
[6] = replicon 1b-Con1, luciferase, three days

T1 sequence (P26663 2420-2989, stated change not applied): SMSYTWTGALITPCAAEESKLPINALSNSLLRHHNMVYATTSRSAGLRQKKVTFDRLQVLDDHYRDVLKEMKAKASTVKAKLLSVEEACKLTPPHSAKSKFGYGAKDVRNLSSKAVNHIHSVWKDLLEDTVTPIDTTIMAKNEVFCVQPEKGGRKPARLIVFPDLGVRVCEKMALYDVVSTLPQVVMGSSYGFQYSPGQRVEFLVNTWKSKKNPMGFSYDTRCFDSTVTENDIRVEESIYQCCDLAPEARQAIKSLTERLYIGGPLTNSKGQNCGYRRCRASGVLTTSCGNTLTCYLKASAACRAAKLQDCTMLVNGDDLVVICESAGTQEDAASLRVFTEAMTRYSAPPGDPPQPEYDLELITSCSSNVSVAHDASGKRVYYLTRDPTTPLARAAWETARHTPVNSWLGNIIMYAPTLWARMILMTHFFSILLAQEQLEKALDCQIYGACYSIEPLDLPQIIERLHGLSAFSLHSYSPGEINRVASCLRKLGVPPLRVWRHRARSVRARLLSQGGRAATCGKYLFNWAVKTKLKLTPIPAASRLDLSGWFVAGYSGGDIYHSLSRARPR

COC(=O)c1cc(NS(C)(=O)=O)ccc1/C=C/c1cc(-n2ccc(=O)[nH]c2=O)cc(C(C)(C)C)c1OC [IB-L1-1.7, (E)-methyl 2-(3-tert-butyl-5-(2,4-dioxo-3,4-dihydropyrimidin-1(2H)-yl)-2-methoxystyryl)-5-(methylsulfonamido)benzoate]
IC50 [1]: 10 to 100 nM
IC50 [2]: < 10 nM
EC50 [3]: < 10 nM
EC50 [4]: < 10 nM

COc1c(/C=C/c2ccc(NS(C)(=O)=O)cc2C=NO)cc(-n2ccc(=O)[nH]c2=O)cc1C(C)(C)C [IB-L1-1.8, N-[4-{(E)-2-[3-tert-Butyl-5-(2,4-dioxo-3,4-dihydro-2H-pyrimidin-1-yl)-2-methoxy-phenyl]-vinyl}-3-(hydroxyimino-methyl)-phenyl]-methanesulfonamide]
IC50 [1]: 10 to 100 nM
IC50 [2]: < 10 nM
EC50 [3]: 10 to 100 nM
EC50 [4]: < 10 nM

COCCNC(=O)c1cc(NS(C)(=O)=O)ccc1/C=C/c1cc(-n2ccc(=O)[nH]c2=O)cc(C(C)(C)C)c1OC [IB-L1-1.9, 2-{(E)-2-[3-tert-Butyl-5-(2,4-dioxo-3,4-dihydro-2H-pyrimidin-1-yl)-2-methoxy-phenyl]-vinyl}-5-methanesulfonylamino-N-(2-methoxy-ethyl)-benzamide]
IC50 [1]: 10 to 100 nM
IC50 [2]: < 10 nM
EC50 [3]: 10 to 100 nM
EC50 [4]: < 10 nM

COc1c(/C=C/c2ccc(NS(C)(=O)=O)cc2CO)cc(-n2ccc(=O)[nH]c2=O)cc1C(C)(C)C [IB-L1-1.10, (E)-N-(4-(3-tert-butyl-5-(2,4-dioxo-3,4-dihydropyrimidin-1(2H)-yl)-2-methoxystyryl)-3-(hydroxymethyl)phenyl)methanesulfonamide]
IC50 [1]: 10 to 100 nM
IC50 [2]: < 10 nM
EC50 [3]: < 10 nM
EC50 [4]: < 10 nM

CCOC(=O)c1cc(NS(C)(=O)=O)ccc1/C=C/c1cc(-n2ccc(=O)[nH]c2=O)cc(C(C)(C)C)c1OC [IB-L1-1.11, 2-{(E)-2-[3-tert-Butyl-5-(2,4-dioxo-3,4-dihydro-2H-pyrimidin-1-yl)-2-methoxy-phenyl]-vinyl}-5-methanesulfonylamino-benzoic acid ethyl ester]
IC50 [1]: 10 to 100 nM
IC50 [2]: < 10 nM
EC50 [3]: 10 to 100 nM
EC50 [4]: < 10 nM

CC(C)(C)c1cc(-n2ccc(=O)[nH]c2=O)cc(/C=C/c2ccc(NS(C)(=O)=O)cc2)c1Cl [IB-L1-1.12, N-(4-{(E)-2-[3-tert-Butyl-2-chloro-5-(2,4-dioxo-3,4-dihydro-2H-pyrimidin-1-yl)-phenyl]-vinyl}-phenyl)-methanesulfonamide]
IC50 [1]: 10 to 100 nM
IC50 [2]: < 10 nM
EC50 [3, 5]: 10 to 100 nM
EC50 [4, 6]: 10 to 100 nM

COCc1cc(NS(C)(=O)=O)ccc1/C=C/c1cc(-n2ccc(=O)[nH]c2=O)cc(C(C)(C)C)c1OC [IB-L1-1.13, (E)-N-(4-(3-tert-butyl-5-(2,4-dioxo-3,4-dihydropyrimidin-1(2H)-yl)-2-methoxystyryl)-3-(methoxymethyl)phenyl)methanesulfonamide]
IC50 [1]: 10 to 100 nM
IC50 [2]: < 10 nM
EC50 [3]: 10 to 100 nM
EC50 [4]: < 10 nM

COc1c(/C=C/c2ccc(NS(C)(=O)=O)cc2C(=O)N(C)C)cc(-n2ccc(=O)[nH]c2=O)cc1C(C)(C)C [IB-L1-1.14, 2-{(E)-2-[3-tert-Butyl-5-(2,4-dioxo-3,4-dihydro-2H-pyrimidin-1-yl)-2-methoxy-phenyl]-vinyl}-5-methanesulfonylamino-N,N-dimethyl-benzamide]
IC50 [1]: 10 to 100 nM
IC50 [2]: < 10 nM
EC50 [3]: 10 to 100 nM
EC50 [4]: < 10 nM

COc1c(/C=C/c2cc(F)c(NS(C)(=O)=O)cc2C)cc(-n2ccc(=O)[nH]c2=O)cc1C(C)(C)C [IB-L1-1.15, (E)-N-(4-(3-tert-butyl-5-(2,4-dioxo-3,4-dihydropyrimidin-1(2H)-yl)-2-methoxystyryl)-2-fluoro-5-methylphenyl)methanesulfonamide]
IC50 [1]: 10 to 100 nM
IC50 [2]: < 10 nM
EC50 [3]: < 10 nM
EC50 [4]: < 10 nM

COc1c(/C=C/c2ccc(NS(C)(=O)=O)cc2-c2ncc[nH]2)cc(-n2ccc(=O)[nH]c2=O)cc1C(C)(C)C [IB-L1-1.16, (E)-N-(4-(3-tert-butyl-5-(2,4-dioxo-3,4-dihydropyrimidin-1(2H)-yl)-2-methoxystyryl)-3-(1H-imidazol-2-yl)phenyl)methanesulfonamide]
IC50 [1]: 10 to 100 nM
IC50 [2]: < 10 nM
EC50 [3]: 100 to 1000 nM
EC50 [4]: 10 to 100 nM

CNC(=O)c1cc(NS(C)(=O)=O)ccc1/C=C/c1cc(-n2ccc(=O)[nH]c2=O)cc(C(C)(C)C)c1OC [IB-L1-1.17, 2-{(E)-2-[3-tert-butyl-5-(2,4-dioxo-3,4-dihydro-2H-pyrimidin-1-yl)-2-methoxy-phenyl]-vinyl}-5-methanesulfonylamino-N-methyl-benzamide]
IC50 [1]: 10 to 100 nM
IC50 [2]: < 10 nM
EC50 [3]: 10 to 100 nM
EC50 [4]: < 10 nM

COc1c(/C=C/c2ccc(NS(C)(=O)=O)cc2C(=O)N(C)C2CCS(=O)(=O)C2)cc(-n2ccc(=O)[nH]c2=O)cc1C(C)(C)C (stereo not shown) [IB-L1-1.18, 2-{(E)-2-[3-tert-butyl-5-(2,4-dioxo-3,4-dihydro-2H-pyrimidin-1-yl)-2-methoxy-phenyl]-vinyl}-N-(1,1-dioxo-tetrahydro-1lambda*6*-thiophen-3-yl)-5-methanesulfonylamino-N-methyl-benzamide]
IC50 [1]: 10 to 100 nM
IC50 [2]: < 10 nM
EC50 [3]: 10 to 100 nM
EC50 [4]: 10 to 100 nM

CO/N=C/c1cc(NS(C)(=O)=O)ccc1/C=C/c1cc(-n2ccc(=O)[nH]c2=O)cc(C(C)(C)C)c1OC [IB-L1-1.19, N-(4-(3-tert-butyl-5-(2,4-dioxo-3,4-dihydropyrimidin-1(2H)-yl)-2-methoxystyryl)-3-((E)-(methoxyimino)methyl)phenyl)methanesulfonamide]
IC50 [1]: 10 to 100 nM
IC50 [2]: < 10 nM
EC50 [3]: 10 to 100 nM
EC50 [4]: < 10 nM

COc1c(/C=C/c2ccc(NS(C)(=O)=O)cc2)cc(-n2cc(Cl)c(=O)[nH]c2=O)cc1C(C)(C)C [IB-L1-1.20, N-(4-{(E)-2-[3-tert-butyl-5-(5-chloro-2,4-dioxo-3,4-dihydro-2H-pyrimidin-1-yl)-2-methoxyphenyl]-vinyl}-phenyl)-methanesulfonamide]
IC50 [1]: 10 to 100 nM
IC50 [2]: < 10 nM
EC50 [3, 5]: 10 to 100 nM
EC50 [4, 6]: < 10 nM

COc1c(/C=C/c2ccc(NS(C)(=O)=O)cc2C(N)=O)cc(-n2ccc(=O)[nH]c2=O)cc1C(C)(C)C [IB-L1-1.21, 2-{(E)-2-[3-tert-butyl-5-(2,4-dioxo-3,4-dihydro-2H-pyrimidin-1-yl)-2-methoxy-phenyl]-vinyl}-5-methanesulfonylamino-benzamide]
IC50 [1]: 10 to 100 nM
IC50 [2]: < 10 nM
EC50 [3]: 10 to 100 nM
EC50 [4]: < 10 nM

COc1c(/C=C/c2ccc(NS(C)(=O)=O)cc2C(=O)N2CCC2)cc(-n2ccc(=O)[nH]c2=O)cc1C(C)(C)C [IB-L1-1.22, N-(3-(azetidine-1-carbonyl)-4-{(E)-2-[3-tert-butyl-5-(2,4-dioxo-3,4-dihydro-2H-pyrimidin-1-yl)-2-methoxy-phenyl]-vinyl}-phenyl)-methanesulfonamide]
IC50 [1]: 10 to 100 nM
IC50 [2]: 10 to 100 nM
EC50 [3]: 10 to 100 nM
EC50 [4]: < 10 nM

COc1c(/C=C/c2ccc(NS(C)(=O)=O)cc2C(=O)N2CCOCC2)cc(-n2ccc(=O)[nH]c2=O)cc1C(C)(C)C [IB-L1-1.23, (E)-N-(4-(3-tert-butyl-5-(2,4-dioxo-3,4-dihydropyrimidin-1(2H)-yl)-2-methoxystyryl)-3-(morpholine-4-carbonyl)phenyl)methanesulfonamide]
IC50 [1]: 10 to 100 nM
IC50 [2]: 10 to 100 nM
EC50 [3]: 100 to 1000 nM
EC50 [4]: < 10 nM

COCCN(C)C(=O)c1cc(NS(C)(=O)=O)ccc1/C=C/c1cc(-n2ccc(=O)[nH]c2=O)cc(C(C)(C)C)c1OC [IB-L1-1.24, 2-{(E)-2-[3-tert-butyl-5-(2,4-dioxo-3,4-dihydro-2H-pyrimidin-1-yl)-2-methoxy-phenyl]-vinyl}-5-methanesulfonylamino-N-(2-methoxy-ethyl)-N-methyl-benzamide]
IC50 [1]: 10 to 100 nM
IC50 [2]: 10 to 100 nM
EC50 [3]: 10 to 100 nM
EC50 [4]: < 10 nM

COc1c(/C=C/c2ccc(NS(C)(=O)=O)cc2COC(C)C)cc(-n2ccc(=O)[nH]c2=O)cc1C(C)(C)C [IB-L1-1.25, N-(4-{(E)-2-[3-tert-butyl-5-(2,4-dioxo-3,4-dihydro-2H-pyrimidin-1-yl)-2-methoxy-phenyl]-vinyl}-3-isopropoxymethyl-phenyl)-methanesulfonamide]
IC50 [1]: 10 to 100 nM
IC50 [2]: 10 to 100 nM
EC50 [3]: 10 to 100 nM
EC50 [4]: < 10 nM
